Experimental data published in patent US8637550B2, “Heteroaryl diamide compounds useful as MMP-13 inhibitors” (Boehringer Ingelheim International GmbH, priority 2008, dated 2014).
“And” between values parts separate entries of the source, which are not always exact repeats. Equal entries are not always repeated.

Target: MMP-13 (Homo sapiens, UniProt P45452)
Experiment: EnzoLyte 520 Generic MMP Assay Kit, 5-FAM/QXL520 FRET peptide substrate
Type: biochemical
Text: The EnzoLyte™ 520 Generic MMP Assay Kit (AnaSpec Inc.) can detect the activity of several MMPs including MMP-1, 2, 3, 7, 8, 9, 13, and 14. This kit uses a 5-FAM/QXL™520 fluorescence resonance energy transfer (FRET) peptide as an MMP substrate.

Row | Compound | IC50
1 | CNC(=O)[C@@H](NC(=O)c1ccc(-c2cccc(CNC(=O)c3ccc(F)c(C(F)(F)F)c3)c2)o1)C(C)C [5-{3-[(3-Trifluoromethyl-4-fluoro-benzoylamino)-methyl]-phenyl}-furan-2-carboxylic acid ((S)-2-methyl-1-methylcarbamoyl-propyl)-amide] | 215 nM
2 | CNC(=O)[C@@H](NC(=O)c1ccc(-c2ccc(OCc3cc(C)nc(C)c3)cn2)o1)C1CCCCC1 [N-[(1S)-1-cyclohexyl-2-(methylamino)-2-oxoethyl]-5-{5-[(2,6-dimethylpyridin-4-yl)methoxy]pyridin-2-yl}furan-2-carboxamide] | 2 nM
3 | CNC(=O)[C@@H](NC(=O)c1ccc(-c2ccc(OCc3ccn(C)n3)cn2)o1)C1CCCCC1 [N-[(1S)-1-cyclohexyl-2-(methylamino)-2-oxoethyl]-5-{5-[(1-methyl-1H-pyrazol-3-yl)methoxy]pyridin-2-yl}furan-2-carboxamide] | 25 nM
4 | CNC(=O)[C@@H](NC(=O)c1ccc(-c2cccc(CNC(=O)c3nc4ccccc4[nH]3)c2)o1)C(C)C [N-[3-(5-{[(1S)-2-methyl-1-(methylcarbamoyl)propyl]carbamoyl}-2-furyl)benzyl]-1H-benzimidazole-2-carboxamide] | 33 nM
5 | CNC(=O)[C@@H](NC(=O)c1ccc(-c2ccc(OCc3ccccc3)cn2)o1)C(C)C [5-(5-Benzyloxy-pyridin-2-yl)-furan-2-carboxylic acid ((S)-2-methyl-1-methylcarbamoyl-propyl)-amide] | 18 nM
6 | CNC(=O)[C@@H](NC(=O)c1ccc(-c2ccc(O[C@H](C)c3ccccc3)cn2)o1)C1CCCCC1 [N-[(1S)-1-cyclohexyl-2-(methylamino)-2-oxoethyl]-5-{5-[(1R)-1-phenylethoxy]pyridin-2-yl}furan-2-carboxamide] | 41 nM and 73 nM
7 | CNC(=O)[C@@H](NC(=O)c1ccc(-c2ccc([N+](=O)[O-])cn2)o1)C1CCCCC1 [N-[(1S)-1-cyclohexyl-2-(methylamino)-2-oxoethyl)-5-(5-nitropyridin-2-yl)furan-2-carboxamide] | 74 nM
8 | CNC(=O)[C@@H](NC(=O)c1ccc(-c2cccc(CNC(=O)c3occc3C)c2)o1)C1CCCCC1 [N-[3-(5-{[(1S)-1-cyclohexyl-2-(methylamino)-2-oxoethyl]carbamoyl}furan-2-yl)benzyl]-3-methylfuran-2-carboxamide] | 180 nM
9 | CNC(=O)[C@@H](NC(=O)c1ccc(-c2ccc(NC(=O)c3cn4cccc(C)c4n3)cc2)o1)C1CCCCC1 [N-[4-(5-{[(1S)-1-cyclohexyl-2-(methylamino)-2-oxoethyl]carbamoyl}furan-2-yl)phenyl]-8-methylimidazo[1,2-a]pyridine-2-carboxamide] | 99 nM
10 | CNC(=O)[C@@H](NC(=O)c1ccc(-c2ccc(OCc3cc(C)cc(C)c3)cn2)o1)C1CCCCC1 [N-[(1S)-1-cyclohexyl-2-(methylamino)-2-oxoethyl]-5-{5-[(3,5-dimethylbenzyl)oxy]pyridin-2-yl}furan-2-carboxamide] | 115 nM
11 | CNC(=O)[C@@H](NC(=O)c1ccc(-c2ccc(-c3ccncc3)cn2)o1)C(C)C [5-[3,4′]Bipyridinyl-6-yl-furan-2-carboxylic acid ((S)-2-methyl-1-methylcarbamoyl-propyl)-amide] | 62 nM
12 | CNC(=O)[C@@H](NC(=O)c1ccc(-c2ccc(OCc3ccccc3)cn2)o1)C1CCCCC1 [5-[5-(Benzyloxy)pyridin-2-yl]-N-[(1S)-1-cyclohexyl-2-(methylamino)-2-oxoethyl]furan-2-carboxamide] | 10 nM
13 | CNC(=O)[C@@H](NC(=O)c1ccc(-c2cccc(CNC(=O)C(C)C)c2)o1)C1CCCCC1 [N-[(1S)-1-cyclohexyl-2-(methylamino)-2-oxoethyl]-5-(3-{[(2-methylpropanoyl)amino]methyl}phenyl)furan-2-carboxamide] | 157 nM
14 | CNC(=O)[C@@H](NC(=O)c1ccc(-c2ccc(NC(=O)c3cc(C)c(C)o3)cc2)o1)C1CCCCC1 [N-[4-(5-{[(1S)-1-cyclohexyl-2-(methylamino)-2-oxoethyl]carbamoyl}furan-2-yl)phenyl]-4,5-dimethylfuran-2-carboxamide] | 63 nM
15 | CNC(=O)[C@@H](NC(=O)c1ccc(-c2cccc(CNC(=O)c3cc(C)n[nH]3)c2)o1)C1CCCCC1 [N-[3-(5-{[(1S)-1-cyclohexyl-2-(methylamino)-2-oxoethyl]carbamoyl}furan-2-yl)benzyl]-3-methyl-1H-pyrazole-5-carboxamide] | 123 nM
16 | CNC(=O)[C@@H](NC(=O)c1ccc(-c2cccc(CNC(=O)c3ccccn3)c2)o1)C1CCCCC1 [N-[3-(5-{[(1S)-1-cyclohexyl-2-(methylamino)-2-oxoethyl]carbamoyl}furan-2-yl)benzyl]pyridine-2-carboxamide] | 9 nM
17 | CNC(=O)[C@@H](NC(=O)c1ccc(-c2ccc(C#N)cn2)o1)C1CCCCC1 [5-(5-Cyanopyridin-2-yl)-N-[(1S)-1-cyclohexyl-2-(methylamino)-2-oxoethyl]furan-2-carboxamide] | 69 nM

Row | Compound | IC50
18 | CNC(=O)[C@@H](NC(=O)c1ccc(-c2ccc(OCc3[nH]cnc3C)cn2)o1)C1CCOCC1 [5-[5-(5-Methyl-3H-imidazol-4-ylmethoxy)-pyridin-2-yl]-furan-2-carboxylic acid [(S)-methylcarbamoyl-(tetrahydro-pyran-4-yl)-methyl]-amide] | 415 nM
19 | CNC(=O)[C@@H](NC(=O)c1ccc(-c2ccc(NC(=O)c3cn4cc(C(N)=O)ccc4n3)cc2)o1)C1CCCCC1 [Imidazo[1,2-a]pyridine-2,6-dicarboxylic acid 6-amide 2-[(4-{5-[((S)-cyclohexyl-methylcarbamoyl-melhyl)-carbamoyl]-furan-2-yl}-phenyl)-amide]] | 24 nM
20 | CNC(=O)[C@@H](NC(=O)c1ccc(-c2ccc(OCc3c[nH]cn3)cn2)o1)C1CCCCC1 [N-[(1S)-1-cyclohexyl-2-(methylamino)-2-oxoethyl]-5-{5-(1H-imidazol-5-ylmethoxy)pyridin-2-yl]furan-2-carboxamide] | 19 nM
21 | CNC(=O)[C@@H](NC(=O)c1ccc(-c2ccc(-c3ccc(C)cc3)cn2)o1)C(C)C [5-[5-(4-Methyl-phenyl)-pyridin-2-yl]-furan-2-carboxylic acid ((S)-2-methyl-1-methylcarbamoyl-propyl)-amide] | 180 nM
22 | CCNC(=O)[C@@H](NC(=O)c1ccc(-c2ccc(OCc3ccccc3)cn2)o1)C1CCCCC1 [5-[5-(Benzyloxy)pyridin-2-yl]-N-[(1S)-1-cyclohexyl-2-(ethylamino)-2-oxoethyl]furan-2-carboxamide] | 17 nM
23 | CNC(=O)[C@@H](NC(=O)c1ccc(-c2cccc(CNC(=O)c3cc(C)c(C)s3)c2)o1)C1CCCCC1 [N-[(1S)-1-cyclohexyl-2-(methylamino)-2-oxoethyl]-5-[3-({[(4,5-dimethylthiophen-2-yl)carbonyl]amino}methyl)phenyl]furan-2-carboxamide] | 50 nM
24 | CNC(=O)[C@@H](NC(=O)c1ccc(-c2ccc(NC(=O)c3ccn(C)n3)cc2)o1)C1CCCCC1 [N-[4-(5-{[(1S)-1-cyclohexyl-2-(methylamino)-2-oxoethyl]carbamoyl}furan-2-yl)phenyl]-1-methyl-1H-pyrazole-3-carboxamide] | 31 nM
25 | CNC(=O)[C@@H](NC(=O)c1ccc(-c2ccc([N+](=O)[O-])cc2)o1)C1CCCCC1 [N-[(1S)-1-cyclohexyl-2-(methylamino)-2-oxoethyl)-5-(4-nitrophenyl)furan-2-carboxamide] | 470 nM
26 | CNC(=O)[C@@H](NC(=O)c1ccc(-c2cccc(CNC(=O)c3cn4c(C)cccc4n3)c2)o1)C1CCCCC1 [N-[3-(5-{[(1S)-1-cyclohexyl-2-(methylamino)-2-oxoethyl]carbamoyl}furan-2-yl)benzyl]-5-methylimidazo[1,2-a]pyridine-2-carboxamide] | 110 nM
27 | CNC(=O)[C@@H](NC(=O)c1ccc(-c2cccc(CNC(=O)c3ncccc3C)c2)o1)C1CCCCC1 [N-[3-(5-{[(1S)-1-cyclohexyl-2-(methylamino)-2-oxoethyl]carbamoyl}furan-2-yl)benzyl]-3-methylpyridine-2-carboxamide] | 103 nM
28 | CNC(=O)[C@@H](NC(=O)c1ccc(-c2ccc(OCc3cncn3C)cn2)o1)C1CCCCC1 [N-[(1S)-1-cyclohexyl-2-(methylamino)-2-oxoethyl]-5-{5-[(1-methyl-1H-imidazol-5-yl)methoxy]pyridin-2-yl}furan-2-carboxamide] | 18 nM
29 | CNC(=O)[C@@H](NC(=O)c1ccc(-c2ccc(O[C@@H](C)c3ccccc3)cn2)o1)C1CCCCC1 [N-[(1S)-1-cyclohexyl-2-(methylamino)-2-oxoethyl]-5-{5-[(1S)-1-phenylethoxy]pyridin-2-yl}furan-2-carboxamide] | 295 nM
30 | CNC(=O)[C@@H](NC(=O)c1ccc(-c2ccc(CNC(=O)C3CC3)cc2)o1)C1CCCCC1 [N-[(1S)-1-cyclohexyl-2-(methylamino)-2-oxoethyl]-5-(4-{[(cyclopropylcarbonyl)amino]methyl}phenyl)furan-2-carboxamide] | 423 nM
31 | CNC(=O)[C@@H](NC(=O)c1ccc(-c2ccc(-c3ccc(OC(C)C)cc3)cn2)o1)C(C)C [5-[5-(4-Isopropoxy-phenyl)-pyridin-2-yl]-furan-2-carboxylic acid ((S)-2-methyl-1-methylcarbamoyl-propyl)-amide] | 29 nM
32 | CNC(=O)[C@@H](NC(=O)c1ccc(-c2ccc(NC(=O)c3cn4ccccc4n3)cc2)o1)C1CCCCC1 [N-[4-(5-{[(1S)-1-cyclohexyl-2-(methylamino)-2-oxoethyl]carbamoyl}furan-2-yl)phenyl]imidazo[1,2-a]pyridine-2-carboxamide] | 109 nM
33 | CNC(=O)[C@@H](NC(=O)c1csc(-c2ccc(Cl)cc2)n1)C1CCCCC1 [2-(4-Chlorophenyl)-N-[(1S)-1-cyclohexyl-2-(methylamino)-2-oxoethyl]-1,3-thiazole-4-carboxamide] | 470 nM
34 | CNC(=O)[C@@H](NC(=O)c1ccc(-c2ccc(OCc3cc(C)nn3C)cn2)o1)C1CCCCC1 [5-[5-(2,5-Dimethyl-2H-pyrazol-3-ylmethoxy)-pyridin-2-yl]-furan-2-carboxylic acid ((S)-cyclohexyl-methylcarbamoyl-methyl)-amide] | 2 nM
